Source: the supplement of paper PMC10307832

Each cell line was assayed with CCOC(=O)CCNc1cc(N2CCc3ccccc3CC2)nc(-c2ccccn2)n1 [GSK-J4] + C[C@@H](Oc1cc(-c2cnn(C3CCNCC3)c2)cnc1N)c1c(Cl)ccc(F)c1Cl [Crizotinib] (partner 1 µM) (assay: relative viability (nuclei count vs DMSO), 5 days (fraction); higher = more cells survive). Conditions: first compound 0.5 µM.
Procedure, shortened: (§1)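 Five library-drug doses in √10 steps were combined with a fixed anchor-drug dose, or a single drug was given alone, by pin tool to lung cancer cell lines in 1536-well plates the day after seeding. Nuclei were stained and counted after 5 days. Relative viability is the nuclei count in treated wells over that in vehicle wells, taken as the median of duplicate plates.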

Cell Line	relative viability
NCI-H358	0.643
NCI-H322M	0.976
LC-2-ad	0.554
HCC-827	0.963
CAL-12T	0.522
HCC-15	0.755
HOP-62	0.798
NCI-H460	0.983
LU99A	0.571
NCI-H2085	0.839
A-427	0.844
NCI-H520	0.737
NCI-H838	0.85
NCI-H1792	0.981
NCI-H596	1.11
NCI-H3122	0.287
BEN	0.865

Cell Line	relative viability
201T	1.01
NCI-H1993	0.826
NCI-H1355	1.06
NCI-H2405	0.847
NCI-H1437	0.76
NCI-H661	0.873
COR-L 105	0.843
H3255	0.869
NCI-H2347	0.644
NCI-H1975	0.928
NCI-H1563	0.888
NCI-H1915	0.852
NCI-H2087	0.685
HCC-366	0.523
RERF-LC-KJ	0.709
EMC-BAC-2	0.712

Same assay, conditions: first compound 1.581 µM

Cell Line	relative viability
NCI-H358	0.579
NCI-H322M	0.779
LC-2-ad	0.426
HCC-827	0.931
CAL-12T	0.512
HCC-15	0.733
HOP-62	1
NCI-H460	0.734
LU99A	0.534
NCI-H2085	0.609
NCI-H520	0.633
NCI-H838	0.845
NCI-H1792	0.675
NCI-H596	1.04
NCI-H3122	0.275
BEN	0.795

Cell Line	relative viability
201T	1.07
NCI-H1993	0.789
NCI-H1355	0.962
NCI-H2405	0.794
NCI-H1437	0.917
NCI-H661	0.969
COR-L 105	0.7
H3255	0.767
NCI-H2347	0.707
NCI-H1975	1.02
NCI-H1563	0.779
NCI-H1915	0.826
NCI-H2087	0.767
HCC-366	0.405
RERF-LC-KJ	0.837
EMC-BAC-2	0.695

Same assay, conditions: first compound 5 µM

Cell Line	relative viability
NCI-H358	0.537
NCI-H322M	0.828
LC-2-ad	0.375
HCC-827	0.933
CAL-12T	0.341
HCC-15	0.778
HOP-62	0.965
NCI-H460	0.832
LU99A	0.618
NCI-H2085	0.617
A-427	0.852
NCI-H520	0.846
NCI-H1792	0.911
NCI-H596	0.932
NCI-H3122	0.27
201T	1.01
NCI-H1993	0.938
NCI-H1355	1.22
NCI-H1437	0.924
NCI-H661	1.04
COR-L 105	0.547
H3255	0.855
NCI-H2347	0.651
NCI-H1563	0.684
NCI-H1915	0.87
RERF-LC-KJ	0.721
EMC-BAC-2	0.726

Same assay, conditions: first compound 15.81 µM

Cell Line	relative viability
NCI-H358	0.55
NCI-H322M	0.91
LC-2-ad	0.41
HCC-827	0.91
CAL-12T	0.479
HCC-15	0.757
HOP-62	0.994
NCI-H460	0.321
LU99A	0.581
NCI-H2085	0.794
A-427	0.591
NCI-H520	0.805
NCI-H838	0.816
NCI-H1792	0.955
NCI-H596	0.949
NCI-H3122	0.243
BEN	0.759

Cell Line	relative viability
201T	1.02
NCI-H1993	0.841
NCI-H1355	1.02
NCI-H2405	0.751
NCI-H1437	0.897
NCI-H661	0.913
COR-L 105	0.749
H3255	0.764
NCI-H2347	0.633
NCI-H1975	0.998
NCI-H1563	0.837
NCI-H1915	0.915
NCI-H2087	0.859
HCC-366	0.395
RERF-LC-KJ	0.872
EMC-BAC-2	0.743

Same assay, conditions: first compound 50 µM

Cell Line	relative viability
NCI-H358	0.589
NCI-H322M	0.83
LC-2-ad	0.427
HCC-827	0.848
CAL-12T	0.589
HCC-15	0.536
HOP-62	0.847
NCI-H460	0.821
LU99A	0.474
NCI-H2085	0.906
A-427	0.362
NCI-H520	0.553
NCI-H838	0.752
NCI-H1792	0.959
NCI-H596	0.992
NCI-H3122	0.283
BEN	0.688

Cell Line	relative viability
201T	0.996
NCI-H1993	0.796
NCI-H1355	1.04
NCI-H2405	0.664
NCI-H1437	0.436
NCI-H661	0.814
COR-L 105	0.695
H3255	0.642
NCI-H2347	0.554
NCI-H1975	1
NCI-H1563	0.857
NCI-H1915	0.804
NCI-H2087	0.516
HCC-366	0.445
RERF-LC-KJ	0.768
EMC-BAC-2	0.733

The cell lines below were run with CCOC(=O)CCNc1cc(N2CCc3ccccc3CC2)nc(-c2ccccn2)n1 [GSK-J4] + C[C@]1(O)C[C@@H](c2nc(-c3ccc4ccc(-c5ccccc5)nc4c3)c3c(N)nccn32)C1 [Linsitinib] (partner 1 µM) in the same assay as above. Conditions: first compound 0.5 µM.
Procedure, shortened: as §1

Cell Line	relative viability
NCI-H358	0.682
NCI-H322M	0.858
LC-2-ad	0.795
HCC-827	0.932
CAL-12T	0.856
HCC-15	0.845
HOP-62	0.952
NCI-H460	0.821
LU99A	0.515
NCI-H2085	0.801
A-427	1.07
NCI-H520	0.829
NCI-H838	0.973
NCI-H1792	0.543
NCI-H596	1
NCI-H3122	0.939
BEN	0.91

Cell Line	relative viability
201T	1.02
NCI-H1993	0.694
NCI-H1355	0.714
NCI-H2405	1.03
NCI-H1437	0.928
NCI-H661	0.549
COR-L 105	0.985
H3255	0.902
NCI-H2347	0.829
NCI-H1975	0.871
NCI-H1563	1.15
NCI-H1915	1.06
NCI-H2087	0.791
HCC-366	0.622
RERF-LC-KJ	0.93
EMC-BAC-2	0.781

Same assay, conditions: first compound 1.581 µM

Cell Line	relative viability
NCI-H358	0.513
NCI-H322M	0.929
LC-2-ad	0.831
HCC-827	0.955
CAL-12T	0.776
HCC-15	0.793
HOP-62	0.78
NCI-H460	0.584
LU99A	0.53
NCI-H2085	0.812
NCI-H520	0.939
NCI-H838	0.982
NCI-H1792	0.296
NCI-H596	1.08
NCI-H3122	1.04
BEN	0.706

Cell Line	relative viability
201T	1.08
NCI-H1993	0.752
NCI-H1355	0.742
NCI-H2405	0.919
NCI-H1437	0.993
NCI-H661	0.565
COR-L 105	0.572
H3255	0.952
NCI-H2347	0.78
NCI-H1975	0.934
NCI-H1563	1.2
NCI-H1915	0.722
NCI-H2087	0.94
HCC-366	0.547
RERF-LC-KJ	0.818
EMC-BAC-2	0.728

Same assay, conditions: first compound 5 µM

Cell Line	relative viability
NCI-H358	0.746
NCI-H322M	0.955
LC-2-ad	0.794
HCC-827	0.889
CAL-12T	0.776
HCC-15	0.892
HOP-62	0.83
NCI-H460	0.836
LU99A	0.565
NCI-H2085	0.926
A-427	1.14
NCI-H520	1.15
NCI-H1792	0.518
NCI-H596	1.07
NCI-H3122	1.04
201T	1.1
NCI-H1993	0.814
NCI-H1355	0.871
NCI-H1437	0.988
NCI-H661	0.608
COR-L 105	0.91
H3255	0.838
NCI-H2347	0.885
NCI-H1563	1.22
NCI-H1915	1.09
RERF-LC-KJ	0.852
EMC-BAC-2	0.83

Same assay, conditions: first compound 15.81 µM

Cell Line	relative viability
NCI-H358	0.717
NCI-H322M	0.828
LC-2-ad	0.769
HCC-827	0.902
CAL-12T	0.742
HCC-15	0.785
HOP-62	0.835
NCI-H460	0.691
LU99A	0.404
NCI-H2085	0.874
A-427	1.11
NCI-H520	0.891
NCI-H838	0.999
NCI-H1792	0.465
NCI-H596	0.938
NCI-H3122	0.998
BEN	0.925

Cell Line	relative viability
201T	1.04
NCI-H1993	0.779
NCI-H1355	0.809
NCI-H2405	1.07
NCI-H1437	0.881
NCI-H661	0.425
COR-L 105	1.06
H3255	0.84
NCI-H2347	0.961
NCI-H1975	0.982
NCI-H1563	1.18
NCI-H1915	1.07
NCI-H2087	0.864
HCC-366	0.478
RERF-LC-KJ	0.856
EMC-BAC-2	0.715

Same assay, conditions: first compound 50 µM

Cell Line	relative viability
NCI-H358	0.857
NCI-H322M	0.825
LC-2-ad	0.839
HCC-827	0.87
CAL-12T	0.648
HCC-15	0.629
HOP-62	0.855
NCI-H460	0.581
LU99A	0.457
NCI-H2085	0.771
A-427	0.94
NCI-H520	0.81
NCI-H838	1
NCI-H1792	0.635
NCI-H596	1.02
NCI-H3122	0.98
BEN	0.823

Cell Line	relative viability
201T	1.06
NCI-H1993	0.785
NCI-H1355	0.816
NCI-H2405	1.1
NCI-H1437	0.222
NCI-H661	0.36
COR-L 105	0.99
H3255	0.707
NCI-H2347	0.651
NCI-H1975	1.17
NCI-H1563	1.24
NCI-H1915	1.11
NCI-H2087	0.641
HCC-366	0.437
RERF-LC-KJ	0.777
EMC-BAC-2	0.794

The cell lines below were run with CN1CCC(CC1)OC2=CC(=C(C=C2)NC3=NC=C4C(=N3)N(C(=O)N4C)C5CCCC5)OC [AZ3146] + COc1cccc2cc(-c3nc([C@H]4CC[C@H](C(=O)O)CC4)n4ncnc(N)c34)[nH]c12 [OSI-027] (partner 0.5 µM) in the same assay as above. Conditions: first compound 0.08 µM.
Procedure, shortened: as §1

Cell Line	relative viability
NCI-H358	0.762
NCI-H322M	0.51
